{
  "source": "patent US20130210034A1",
  "about": "“COMPLEX PHOSPHOPROTEIN ACTIVATION PROFILES” (BECKMAN COULTER, INC., priority 2005, published 2013)",
  "key": {"pERK": {"test_system": "pERK", "test": "Phosphoprotein kinetic profiles in bone marrow samples from healthy donors", "assay_type": "cell-based, human", "conditions": "100 μM U0126 pre-incubation; healthy donor CD34^+, CD117^+ cells", "procedure": "(§1) Phosphoprotein kinetic profiles were analyzed in bone marrow aspiration samples from nine healthy, adult donors (i.e., normal bone marrow or NBM) and from five AML patients. Samples from healthy donors included 5 males and 4 females, ranging in age from 26 to 49 years. Approximately 10 to 20 mL of bone marrow (BM) samples were collected from the posterior iliac crest of the volunteers using IRB approved protocols. The BM samples were filtered using a 40 μm Nylon cell strainer to remove marrow particles and the white blood cell concentration determined using a blood analyzer. […] The samples were immediately used for subsequent experimentation.\n(§2) To assess the signal transduction response after growth factor simulation, 100 to 200 μL of processed samples including about 2×10^6 WBC/100 μL were added to tubes and incubated at 37° C. for 30 minutes. For inhibition experiments, cells were incubated with 100 μM U0126, 1 μg/mL rapamycin, or both for at least 20 minutes prior to cytokine addition and in all cases for 30 min prior to formaldehyde addition. […] After stimulation the cells were immediately fixed by the addition of formaldehyde to a final concentration of 4% v/v and incubated for 10 minutes at room temperature. Following fixation, red blood cells were lysed by the addition of TRITON-X/PBS solution (0.1% v/v final concentration Triton X-100) supplemented with a 1 x phosphatase inhibitor cocktail (PIC; final concentrations: 0.2 mM sodium orthovanadate, 2 mM sodium pyrophosphate decahydrate, 2 mM [3-glycerophosphate, and 10 mM sodium fluoride) and incubation at 37° C. for 20 minutes. The incubated solution was chilled by the addition of ice-cold Wash Buffer (final concentration 1×PBS and either 4% bovine serum albumin (BSA) or 4% heat-inactivated fetal bovine serum (FBS), supplemented with 1×PIC), and the samples were centrifuged at 300 g for 6 minutes at 4° C.). If the lysis was incomplete, samples were retreated with 0.1% Triton X-100 at 37° C. for 10 to 20 minutes. After removal of the supernatant, cells were washed twice in ice-cold Wash Buffer supplemented with 1×PIC and permeabilized by the addition of pre-chilled 80% methanol while simultaneously vortexing the tube and incubated on ice for 10 minutes. Methanol was removed by centrifugation, the pellet was washed with ice-cold 1×PBS, and non-specific binding was blocked by the addition of ice-cold Wash Buffer supplemented with 1×PIC and incubation at 4° C. for a minimum of 30 minutes.\n(§3) To stain cells with fluorescent conjugated monoclonal antibodies, the incubated solution was centrifuged to remove the supernatant and the pellet was incubated for 60 minutes at 4° C. with an antibody staining solution including 0.25 μg to 0.50 μg of pS6-Pacific Blue, pERK-ALEXA 488, pSTAT5-ALEXA 647, CD34-PE, CD45-PerCP, and CD117-PC7. Samples were washed three times with ice-cold Wash Buffer supplemented with 1×PIC, resuspended in 0.5 mL ice-cold Wash Buffer supplemented with 1×PIC including 0.5 μg/mL DAPI, and analyzed by flow cytometryusing a BD LSR II Flow Cytometer, equipped with a High Throughput Sampler (HTS).\n(§4) First, doublets, aggregates, and debris were excluded by gating on single cell events in the SSC-Area versus SSC-Height histogram. Then, in events passing through this gate, debris near the origin of the FSC-Area versus SSC-Area plot (gray in FIG. 4A) was excluded by drawing a gate around an area encompassing, primarily, lymphocytes, monocytes, and granulocytes (LMG, black in FIG. 4A). Next, in cells passing through the LMG gate, the blast region (circle in FIG. 4B) was identified in the CD45 versus SSC-Area histogram (FIG. 4B). From this blast population, CD34+, CD117+ cells were identified in the CD34 versus CD117 plot (boxed area in FIG. 4C)."}, "pS6": {"test_system": "pS6", "test": "Phosphoprotein kinetic profiles in bone marrow samples from healthy donors", "assay_type": "cell-based, human", "conditions": "at 4 min; 100 μM U0126", "procedure": "as §1, §2, §3, §4"}},
  "data": [
    {"smiles": "N#CC(=C(/N)Sc1ccccc1N)/C(C#N)=C(\\N)Sc1ccccc1N", "note": "[U0126, reference compound]", "values": [
      {"measurement": "Inhibition of SCF-stimulated ERK phosphorylation", "setting": "pERK", "value": "completely inhibited"},
      {"measurement": "Inhibition of SCF-stimulated S6 phosphorylation", "setting": "pS6", "value": "partially blocked"}
    ]}
  ]
}
